The numbers were not newly measured in patent US7160886B2, “Acylated piperazine derivatives as melanocortin-4 receptor agonists” (Merck & Co., Inc., priority 2003, dated 2007), which cites them from elsewhere.

This data set relates to men with erectile dysfunction. As to conditions: for duration of effect / onset of action: after an oral dose; for patients in whom effective / adequate response: oral.

For `CCCc1nn(C)c2c(=O)[nH]c(-c3cc(S(=O)(=O)N4CCN(C)CC4)ccc3OCC)nc12` [sildenafil], the duration of effect result is listed as “about 4 hours”, the onset of action was 30 to 60 min and the “patients in whom effective / adequate response” value is recorded as “about 70%”.

With `Cc1ccc(N(CC2=NCCN2)c2cccc(O)c2)cc1` [phentolamine], the duration of effect was 2 h, the onset of action is 5 to 30 min and the “patients in whom effective / adequate response” value is listed as 35–40%.
